Values quoted from earlier work, collected in patent US20020037290A1, “Compositions comprising heat shock proteins or alpha(2) macroglobulin, antigenic molecules and saponins, and methods of use thereof” (priority 2000, published 2002).

B1: gp96 derived from the UV6138: heat shock protein gp96(-peptide complex) preparation isolated from the UV-induced UV6138 mouse carcinoma (protein, UniProt P08113 22-802, looked up)
Endoplasmin: DDEVDVDGTVEEDLGKSREGSRTDDEVVQREEEAIQLDGLNASQIRELREKSEKFAFQAEVNRMMKLIINSLYKNKEIFLRELISNASDALDKIRLISLTDENALAGNEELTVKIKCDKEKNLLHVTDTGVGMTREELVKNLGTIAKSGTSEFLNKMTEAQEDGQSTSELIGQFGVGFYSAFLVADKVIVTSKHNNDTQHIWESDSNEFSVIADPRGNTLGRGTTITLVLKEEASDYLELDTIKNLVRKYSQFINFPIYVWSSKTETVEEPLEEDEAAKEEKEESDDEAAVEEEEEEKKPKTKKVEKTVWDWELMNDIKPIWQRPSKEVEEDEYKAFYKSFSKESDDPMAYIHFTAEGEVTFKSILFVPTSAPRGLFDEYGSKKSDYIKLYVRRVFITDDFHDMMPKYLNFVKGVVDSDDLPLNVSRETLQQHKLLKVIRKKLVRKTLDMIKKIADEKYNDTFWKEFGTNIKLGVIEDHSNRTRLAKLLRFQSSHHSTDITSLDQYVERMKEKQDKIYFMAGSSRKEAESSPFVERLLKKGYEVIYLTEPVDEYCIQALPEFDGKRFQNVAKEGVKFDESEKTKESREATEKEFEPLLNWMKDKALKDKIEKAVVSQRLTESPCALVASQYGWSGNMERIMKAQAYQTGKDISTNYYASQKKTFEINPRHPLIRDMLRRIKEDEDDKTVMDLAVVLFETATLRSGYLLPDTKAYGDRIERMLRLSLNIDPEAQVEEEPEEEPEDTSEDAEDSEQDEGEEMDAGTEEEEEETEKESTEKDEL
modifications: bound tumor peptides
notes: heat shock protein gp96(-peptide complex) preparation isolated from the UV-induced UV6138 mouse carcinoma
B2: liver-derived gp96: gp96-peptide complex derived from normal liver (protein, UniProt P08113 22-802, looked up)
Endoplasmin: B1 Endoplasmin
modifications: bound peptides
B3: gp96 derived from the UV6139: gp96-peptide complex derived from UV6139SJ carcinoma cells (protein, UniProt P08113 22-802, looked up)
Endoplasmin: B1 Endoplasmin
modifications: bound tumor peptides
notes: gp96-peptide complex derived from UV6139SJ carcinoma cells

Legend:
[1] = system: bovine serum albumin and cytochrome b5; conditions: Kensil et al., 1991, cited from earlier work; for level of antibody response induced: mice, antigens bovine serum albumin and cytochrome b5; for IgG2a response to cytochrome b5: saponin doses of 20 μg
[2] = system: murine antiidiotype antibody MELIMMUNE-1; conditions: melanoma patients; Livingston et al., 1995; cited from earlier work
[3] = mouse, in vivo; cited from earlier work
UV6138 carcinoma = conditions: cited from earlier work
UV6139SJ carcinoma [4] = conditions: prior experiments, cited from earlier work; for tumor growth, monitored as the average of two perpendicular diameter measurements: U.S. Pat. No. 5,837,251, established UV6139SJ carcinoma
UV6139SJ carcinoma [5] = conditions: cited from earlier work
[6] = previously shown, U.S. Pat. No. 5,837,251
[7] = prior result of U.S. Pat. No. 5,837,251, resistant mice out of mice challenged

| Molecule | level of antibody response induced [1] | IgG2a response to cytochrome b5 [1] | tumor growth, monitored as the average of two perpendicular diameter measurements (UV6139SJ carcinoma [4]) | also measured |
| --- | --- | --- | --- | --- |
| QS-17 | comparable to other commonly used adjuvants | stimulate IgG2a response |  |  |
| QS-18 | comparable to other commonly used adjuvants | stimulate IgG2a response |  |  |
| QS-21 | comparable to other commonly used adjuvants | stimulate IgG2a response |  | serological response to MELIMMUNE-1 [2]: significantly increased; toxicity in mice [3]: least toxic |
| B1 |  |  |  | immunity to the UV6138 challenge (UV6138 carcinoma; [6]): rendered the mice immune; resistance conferred against the UV6138 cells (UV6138 carcinoma; [7]): 6 out of 7 |
| B2 |  |  | not |  |
| B3 |  |  | significantly retarded | kinetics of tumor growth in treated and control mice (UV6139SJ carcinoma [4]; effect appears to diminish after treatment is terminated): immediate inhibitory effect on tumor growth; immunity to the UV6139SJ challenge (UV6139SJ carcinoma [5]; [6]): conferred resistance; resistance conferred against the UV6139SJ cells (UV6139SJ carcinoma [5]; [7]): 2 out of 4 |
